What was measured:
Format in all cases: in vivo
[1] = tested on: blackgrass (Alopecurus myosuroides); assay: Test A postemergence, visual injury rating; settings: Alopecurus myosuroides, post-emergence, 240 h, 0 is no effect, 100 is complete control, read-out: Blackgrass plant response rating (0 to 100 scale); for pest or weed control at 125 g/ha: 125 g ai/ha; for pest or weed control at 500 g/ha: 500 g ai/ha
In short: (§1)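 Visual injury scored 0–100 (100 = complete control) against untreated controls about 10 days after treatment in a greenhouse. Test chemicals, formulated with surfactant in non-phytotoxic solvent, were sprayed on soil preemergence or on 2-10 cm, one- to two-leaf plants postemergence.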

[2] = tested on: pigweed (Amaranthus retroflexus); assay: Test A postemergence, visual injury rating; settings: Amaranthus retroflexus, post-emergence, 240 h, 0 is no effect, 100 is complete control, read-out: Pigweed plant response rating (0 to 100 scale); for pest or weed control at 125 g/ha: 125 g ai/ha; for pest or weed control at 500 g/ha: 500 g ai/ha
In short: as §1

[3] = tested on: wheat (Triticum aestivum); assay: Test A postemergence, visual injury rating; settings: Triticum aestivum, post-emergence, 240 h, 0 is no effect, 100 is complete control, read-out: Wheat plant response rating (0 to 100 scale); for plant injury at 125 g/ha: 125 g ai/ha; for plant injury at 500 g/ha: 500 g ai/ha
In short: as §1

[4] = tested on: ragweed (common ragweed, Ambrosia elatior); assay: Test A postemergence, visual injury rating; settings: Ambrosia artemisiifolia, post-emergence, 240 h, 0 is no effect, 100 is complete control, read-out: Ragweed plant response rating (0 to 100 scale); for pest or weed control at 125 g/ha: 125 g ai/ha; for pest or weed control at 500 g/ha: 500 g ai/ha
In short: as §1

[5] = tested on: galium (catchweed bedstraw, Galium aparine); assay: Test A postemergence, visual injury rating; settings: Galium, post-emergence, 240 h, 0 is no effect, 100 is complete control, read-out: Galium plant response rating (0 to 100 scale); for pest or weed control at 125 g/ha: 125 g ai/ha; for pest or weed control at 500 g/ha: 500 g ai/ha
In short: as §1

kochia (Kochia scoparia) = assay: Test A postemergence, visual injury rating; settings: Bassia scoparia, post-emergence, 240 h, 0 is no effect, 100 is complete control, read-out: Kochia plant response rating (0 to 100 scale); for pest or weed control at 125 g/ha: 125 g ai/ha; for pest or weed control at 500 g/ha: 500 g ai/ha
In short: as §1

[6] = tested on: Italian ryegrass (Lolium multiflorum); assay: Test A postemergence, visual injury rating; settings: Lolium multiflorum, post-emergence, 240 h, 0 is no effect, 100 is complete control, read-out: Ryegrass, Italian plant response rating (0 to 100 scale); for pest or weed control at 125 g/ha: 125 g ai/ha; for pest or weed control at 500 g/ha: 500 g ai/ha
In short: as §1

corn (Zea mays) = assay: Test A postemergence, visual injury rating; settings: Zea mays, post-emergence, 240 h, 0 is no effect, 100 is complete control, read-out: Corn plant response rating (0 to 100 scale); for plant injury at 125 g/ha: 125 g ai/ha; for plant injury at 500 g/ha: 500 g ai/ha
In short: as §1

[7] = tested on: giant foxtail (Setaria faberii); assay: Test A postemergence, visual injury rating; settings: Setaria faberi, post-emergence, 240 h, 0 is no effect, 100 is complete control, read-out: Foxtail, Giant plant response rating (0 to 100 scale); for pest or weed control at 125 g/ha: 125 g ai/ha; for pest or weed control at 500 g/ha: 500 g ai/ha
In short: as §1

[8] = tested on: barnyardgrass (Echinochloa crus-galli); assay: Test A postemergence, visual injury rating; settings: Echinochloa crus-galli, post-emergence, 240 h, 0 is no effect, 100 is complete control, read-out: Barnyardgrass plant response rating (0 to 100 scale); for pest or weed control at 125 g/ha: 125 g ai/ha; for pest or weed control at 500 g/ha: 500 g ai/ha
In short: as §1

[9] = tested on: ragweed (common ragweed, Ambrosia elatior); assay: Test C postemergence, plant response rating; settings: Ambrosia artemisiifolia, post-emergence; for pest or weed control at 16 g/ha: 16 g ai/ha; for pest or weed control at 16 g/ha / pest or weed control at 31 g/ha: scale 0 to 100; for pest or weed control at 31 g/ha: 31 g ai/ha; for pest or weed control at 62 g/ha: 62 g ai/ha; for pest or weed control at 62 g/ha / pest or weed control at 125 g/ha: scale 0 to 100 (0 no effect, 100 complete control); for pest or weed control at 125 g/ha: 125 g ai/ha
In short: (§2)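 Preemergence: seeds sown in loam–sand blend or silt loam and sprayed with test chemicals in a non-phytotoxic surfactant-containing solvent. Postemergence: potted plants at 2–18 cm (1–4-leaf stage) sprayed with the same formulation. After 13–15 d in greenhouse, visual rating versus controls on 0 (no effect) to 100 (complete control) scale.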

[10] = tested on: galium (catchweed bedstraw, Galium aparine); assay: Test C postemergence, plant response rating; settings: Galium, post-emergence; for pest or weed control at 16 g/ha: 16 g ai/ha; for pest or weed control at 16 g/ha / pest or weed control at 31 g/ha: scale 0 to 100; for pest or weed control at 31 g/ha: 31 g ai/ha; for pest or weed control at 62 g/ha: 62 g ai/ha; for pest or weed control at 62 g/ha / pest or weed control at 125 g/ha: scale 0 to 100 (0 no effect, 100 complete control); for pest or weed control at 125 g/ha: 125 g ai/ha
In short: as §2

[11] = tested on: velvetleaf (Abutilon theophrasti); assay: Test C postemergence, plant response rating; settings: Abutilon theophrasti, post-emergence; for pest or weed control at 16 g/ha: 16 g ai/ha; for pest or weed control at 16 g/ha / pest or weed control at 31 g/ha: scale 0 to 100; for pest or weed control at 31 g/ha: 31 g ai/ha; for pest or weed control at 62 g/ha: 62 g ai/ha, read-out: Velvetleaf plant response rating; for pest or weed control at 62 g/ha / pest or weed control at 125 g/ha: scale 0 to 100 (0 no effect, 100 complete control); for pest or weed control at 125 g/ha: 125 g ai/ha
In short: as §2

[12] = tested on: barnyardgrass (Echinochloa crus-galli); assay: Test C preemergence, plant response rating; settings: Echinochloa crus-galli, pre-emergence, Preemergence; for pest or weed control at 62 g/ha: 62 g ai/ha; for pest or weed control at 62 g/ha / pest or weed control at 125 g/ha: scale of 0 to 100; for pest or weed control at 125 g/ha: 125 g ai/ha; for pest or weed control at 16 g/ha: 16 g ai/ha; for pest or weed control at 16 g/ha / pest or weed control at 31 g/ha: scale 0 to 100; for pest or weed control at 31 g/ha: 31 g ai/ha

O=C(OCCC(F)(F)F)c1c(Cl)cccc1Oc1ncc(Cl)cn1 [Compound 15, 3,3,3-trifluoropropyl 2-chloro-6-[(5-chloro-2-pyrimidinyl)oxy]benzoate]
pest or weed control at 125 g/ha [1]: 90%
pest or weed control at 500 g/ha [1]: 100%
pest or weed control at 125 g/ha [2]: 100%
pest or weed control at 500 g/ha [2]: 100%
plant injury at 125 g/ha [3]: 20%
plant injury at 500 g/ha [3]: 100%
pest or weed control at 125 g/ha [4]: 20%
pest or weed control at 500 g/ha [4]: 40%
pest or weed control at 125 g/ha [5]: 100%
pest or weed control at 500 g/ha [5]: 100%
pest or weed control at 125 g/ha (kochia (Kochia scoparia)): 100%
pest or weed control at 500 g/ha (kochia (Kochia scoparia)): 100%
pest or weed control at 125 g/ha [6]: 60%
pest or weed control at 500 g/ha [6]: 90%
plant injury at 125 g/ha (corn (Zea mays)): 50%
plant injury at 500 g/ha (corn (Zea mays)): 90%
pest or weed control at 125 g/ha [7]: 90%
pest or weed control at 500 g/ha [7]: 100%
pest or weed control at 125 g/ha [8]: 90%
pest or weed control at 500 g/ha [8]: 100%
pest or weed control at 16 g/ha [9]: 30%
pest or weed control at 31 g/ha [9]: 40%
pest or weed control at 62 g/ha [9]: 50%
pest or weed control at 125 g/ha [9]: 65%
pest or weed control at 16 g/ha [10]: 70%
pest or weed control at 31 g/ha [10]: 60%
pest or weed control at 62 g/ha [10]: 95%
pest or weed control at 125 g/ha [10]: 95%
pest or weed control at 16 g/ha [11]: 50%
pest or weed control at 31 g/ha [11]: 50%
pest or weed control at 62 g/ha [11]: 60%
pest or weed control at 125 g/ha [11]: 85%
pest or weed control at 62 g/ha [12]: 100%
pest or weed control at 125 g/ha [12]: 100%
pest or weed control at 16 g/ha [12]: 10%
pest or weed control at 31 g/ha [12]: 85%

CC(CC(F)(F)F)OC(=O)c1c(Br)cccc1Oc1ncc(Cl)cn1 (stereo not drawn) [Compound 16, 3,3,3-trifluoro-1-methylpropyl 2-bromo-6-[(5-chloro-2-pyrimidinyl)oxy]benzoate]
pest or weed control at 125 g/ha [1]: 20%
pest or weed control at 500 g/ha [1]: 90%
pest or weed control at 125 g/ha [2]: 90%
pest or weed control at 500 g/ha [2]: 100%
plant injury at 125 g/ha [3]: 20%
plant injury at 500 g/ha [3]: 20%
pest or weed control at 125 g/ha [4]: 10%
pest or weed control at 500 g/ha [4]: 30%
pest or weed control at 125 g/ha [5]: 90%
pest or weed control at 500 g/ha [5]: 100%
pest or weed control at 125 g/ha (kochia (Kochia scoparia)): 80%
pest or weed control at 500 g/ha (kochia (Kochia scoparia)): 100%
pest or weed control at 125 g/ha [6]: 10%
pest or weed control at 500 g/ha [6]: 30%
plant injury at 125 g/ha (corn (Zea mays)): 20%
plant injury at 500 g/ha (corn (Zea mays)): 60%
pest or weed control at 125 g/ha [7]: 20%
pest or weed control at 500 g/ha [7]: 90%
pest or weed control at 125 g/ha [8]: 10%
pest or weed control at 500 g/ha [8]: 90%
pest or weed control at 16 g/ha [9]: 20%
pest or weed control at 31 g/ha [9]: 10%
pest or weed control at 62 g/ha [9]: 10%
pest or weed control at 125 g/ha [9]: 40%
pest or weed control at 16 g/ha [10]: 45%
pest or weed control at 31 g/ha [10]: 50%
pest or weed control at 62 g/ha [10]: 55%
pest or weed control at 125 g/ha [10]: 55%
pest or weed control at 16 g/ha [11]: 20%
pest or weed control at 31 g/ha [11]: 25%
pest or weed control at 62 g/ha [11]: 30%
pest or weed control at 125 g/ha [11]: 50%
pest or weed control at 62 g/ha [12]: 30%
pest or weed control at 125 g/ha [12]: 75%
pest or weed control at 16 g/ha [12]: 0%
pest or weed control at 31 g/ha [12]: 15%

— patent publication US11053204B2, “Pyrimidinyloxy benzene derivatives as herbicides” (FMC Corporation, priority 2015, dated 2021)
